Measurements reported in US20250002489A1, “BIFUNCTIONAL COMPOUNDS FOR DEGRADING ITK VIA UBIQUITIN PROTEOSOME PATHWAY” (NURIX THERAPEUTICS, INC., priority 2021, published 2025).

Target: T1, ITK (Jurkat or Molt4 cells) (Homo sapiens, UniProt Q08881)
T1 construct: either human Jurkat (Clone E6-1 ATCC TIB-152) or Motl4 (ATCC CRL-1552), were plated; endogenous in cells; host or cells: Jurkat Clone E6-1 (ATCC TIB-152) or Molt4 (ATCC CRL-1552)
T1 sequence (Q08881 1-620): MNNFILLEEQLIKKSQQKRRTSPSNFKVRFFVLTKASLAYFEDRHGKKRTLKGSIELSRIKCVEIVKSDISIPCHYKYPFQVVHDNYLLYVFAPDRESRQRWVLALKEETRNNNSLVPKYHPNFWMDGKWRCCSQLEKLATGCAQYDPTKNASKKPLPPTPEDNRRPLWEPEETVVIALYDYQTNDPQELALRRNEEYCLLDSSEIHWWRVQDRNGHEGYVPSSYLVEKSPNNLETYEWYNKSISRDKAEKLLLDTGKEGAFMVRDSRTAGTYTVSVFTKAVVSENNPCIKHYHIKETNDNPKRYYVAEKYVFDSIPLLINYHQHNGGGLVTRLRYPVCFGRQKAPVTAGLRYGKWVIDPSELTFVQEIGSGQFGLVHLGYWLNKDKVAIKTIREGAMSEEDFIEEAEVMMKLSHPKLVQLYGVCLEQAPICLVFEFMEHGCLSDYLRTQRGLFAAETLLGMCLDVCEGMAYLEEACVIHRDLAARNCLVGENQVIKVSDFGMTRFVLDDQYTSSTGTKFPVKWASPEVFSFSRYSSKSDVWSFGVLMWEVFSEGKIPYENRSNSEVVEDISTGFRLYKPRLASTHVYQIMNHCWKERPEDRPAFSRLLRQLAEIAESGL
Assay: ITK Degradation MSD (Meso Scale Discovery) Assay
Assay type: cell-based
Details: 4 or 6 hrs incubation; for DC50: best fit IC50 used as DC50
Experimental: Compound dilution series (7-point, 5-fold dilutions in DMSO, rows B—H with replicate in Column 1/2, 3/4, 5/6, 7, and 8 at 2000× the final required concentrations were prepared in 96-well plate (Falcon, cat. no. 353077). Row A, Column 1-8 were control DMSO. The 2000× solutions ranged from 2 mM to 128 nM (final assay concentration range 1 μM to […]). The 2000×solutions were added to cells in 10 μL volume, for a final DMSO concentration of 0.5% and final assay compound concentration of 1×. For the cells, either human Jurkat (Clone E6-1 ATCC TIB-152) or Motl4 (ATCC CRL-1552), were plated at 1×10^6 cells/mL, 100 μL/well ([…]) in complete RPMI (10% FBS, 1% L-glutamine). The cells were incubated with compounds 26-29 for 4 or 6 hrs at 32° C./6% CO2.
Following incubation, plates were centrifuged at 1200 rpm for 5 min. Supernatant was removed and 50 μL of cell lysis buffer (MSD Tris lysis buffer (R60TX), complete Mini EDTA-free protease inhibitor (Sigma 11836170001), Protease Inhibitor Cocktail (Sigma, P2714), Phosphatase Inhibitor Cocktail 2 and 3 (Sigma, P5726 and P0044), Benzonase (Sigma, E1014)) was added to each well. Plate was sealed and shook at 4° C. for 30 min. Plate was centrifuged and 45 μL was removed for plate assay.
Assay plate preparation: Meso Scale Discovery (MSD) multi-array sm spot 96-well plates (Goat anti-Rabbit L^45-RA), were blocked with 3% BSA blocking buffer (3% Bovine Serum Albumin (Sigma A3059)+TBS 0.2% Tween-20) for one hour with gentle rocking at room temperature. Plate was then washed with 200 μL of 1×TBST (TBS 0.2% Tween-20) three times. After the last wash, all liquid was removed and 50 μL per well of capture antibody (abcam ITK Y402-ab32507) was added to plate at a 1:1000 dilution in blocking buffer (see above). Plate was sealed and rocked at room temperature for 2 hrs. Plate was then washed three times with 200 μL of 1×TBST. After the last wash, all liquid was removed and 45 μL of cell lysate (from above) was added to plate. Plate was sealed and rocked overnight at 4° C. The next day, cell lysates were removed, and assay plate was washed three times with 200 μL of 1×TBST. After the last wash, liquid was removed and detection antibody (CST ITK (2F12) #2380) was added at 50 μL per well at a dilution of 1:1000 in blocking buffer. Plate was sealed and rocked at room temperature for 2 hrs. Plate was washed three times with 200 μL of 1×TBST. After the last wash, all liquid was removed, MSD […] sulfo tag (R32AC-1) was diluted to 1:1000 in blocking buffer. 50 μL was added to each well on the plate. Plate was sealed and incubated at room temperature for one hour. Plate was washed three times with 200 μL of 1×TBST. After last wash, all liquid was removed and 150 μL of 1×MSD Read Buffer T (R92PC) was then added to each well for ECL read out.
For reading ECL signal, plate was read on a Meso Scale Discovery (MSD) MESO Sector S 600 plate reader. Percent ITK was then calculated as described below.
Percent ITK remaining per sample was calculated as follows: […]
Using Graphpad Prism, % ITK remaining values were plotted as a function of compound concentration. To determine DC50 and Dmax values, resulting curves were fit to the Prism curve-fitting equation “log(inhibitor) vs response−Variable slope (four parameters)” (reported best fit value IC50 used as DC50).

Compound	Dmax [%]	DC50 [nM]
Cc1ncsc1-c1ccc([C@H](C)NC(=O)[C@@H]2C[C@@H](O)CN2C(=O)[C@@H](NC(=O)CC2CCN(c3ccc(C(=O)N4CC([C@@H](c5ccccc5)n5cc(NC(=O)c6n[nH]c7c6C[C@@H]6C(F)(F)[C@]6(C)C7)cn5)C4)nc3)CC2)C(C)(C)C)cc1 [Compound 22, (4aS,5aR)-5,5-difluoro-N-(1-((S)-(1-(5-(4-(2-(((S)-1-((2S,4R)-4-hydroxy-2-(((S)-1-(4-(4-methylthiazol-5-yl)phenyl)ethyl)carbamoyl)pyrrolidin-1-yl)-3,3-dimethyl-1-oxobutan-2-yl)amino)-2-oxoethyl)piperidin-1-yl)picolinoyl)azetidin-3-yl)(phenyl)methyl)-1H-pyrazol-4-yl)-5a-methyl-1,4,4a,5,5a,6-hexahydrocyclopropa[f]indazole-3-carboxamide]	88	3.78
Cc1ncsc1-c1ccc(CNC(=O)[C@@H]2C[C@@H](O)CN2C(=O)[C@@H](NC(=O)C2(F)CC2)C(C)(C)C)c(OCCCCCCCC(=O)N2CC([C@@H](c3ccccc3)n3cc(NC(=O)c4n[nH]c5c4C[C@@H]4C(F)(F)[C@]4(C)C5)cn3)C2)c1 [Compound 20, (4aS,5aR)-5,5-difluoro-N-(1-((S)-(1-(8-(2-(((2S,4R)-1-((S)-2-(1-fluorocyclopropane-1-carboxamido)-3,3-dimethylbutanoyl)-4-hydroxypyrrolidine-2-carboxamido)methyl)-5-(4-methylthiazol-5-yl)phenoxy)octanoyl)azetidin-3-yl)(phenyl)methyl)-1H-pyrazol-4-yl)-5a-methyl-1,4,4a,5,5a,6-hexahydrocyclopropa[f]indazole-3-carboxamide]	94.6	1.27
Cc1ncsc1-c1ccc([C@H](C)NC(=O)[C@@H]2C[C@@H](O)CN2C(=O)[C@@H](NC(=O)CCOCCOCCC(=O)N2CC([C@@H](c3ccccc3)n3cc(NC(=O)c4n[nH]c5c4C[C@@H]4C(F)(F)[C@]4(C)C5)cn3)C2)C(C)(C)C)cc1 [Compound 30, (4aS,5aR)-5,5-difluoro-N-(1-((S)-(1-(3-(2-(3-(((S)-1-((2S,4R)-4-hydroxy-2-(((S)-1-(4-(4-methylthiazol-5-yl)phenyl)ethyl)carbamoyl)pyrrolidin-1-yl)-3,3-dimethyl-1-oxobutan-2-yl)amino)-3-oxopropoxy)ethoxy)propanoyl)azetidin-3-yl)(phenyl)methyl)-1H-pyrazol-4-yl)-5a-methyl-1,4,4a,5,5a,6-hexahydrocyclopropa[f]indazole-3-carboxamide]	86.3	38.8
Cc1ncsc1-c1ccc(CNC(=O)[C@@H]2C[C@@H](O)CN2C(=O)[C@@H](NC(=O)CCOCCOCCOCCC(=O)N2CC([C@@H](c3ccccc3)n3cc(NC(=O)c4n[nH]c5c4C[C@@H]4C(F)(F)[C@]4(C)C5)cn3)C2)C(C)(C)C)cc1 [Compound 15, (4aS,5aR)-5,5-difluoro-N-(1-((S)-(1-((S)-15-((2S,4R)-4-hydroxy-2-((4-(4-methylthiazol-5-yl)benzyl)carbamoyl)pyrrolidine-1-carbonyl)-16,16-dimethyl-13-oxo-4,7,10-trioxa-14-azaheptadecanoyl)azetidin-3-yl)(phenyl)methyl)-1H-pyrazol-4-yl)-5a-methyl-1,4,4a,5,5a,6-hexahydrocyclopropa[f]indazole-3-carboxamide]		54.7
Cc1ncsc1-c1ccc(CNC(=O)[C@@H]2C[C@@H](O)CN2C(=O)[C@@H](NC(=O)C2(F)CC2)C(C)(C)C)c(OCC(=O)N2CC([C@@H](c3ccccc3)n3cc(NC(=O)c4n[nH]c5c4C[C@@H]4C(F)(F)[C@]4(C)C5)cn3)C2)c1 [Compound 32, (4aS,5aR)-5,5-difluoro-N-(1-((S)-(1-(2-(2-(((2S,4R)-1-((S)-2-(1-fluorocyclopropane-1-carboxamido)-3,3-dimethylbutanoyl)-4-hydroxypyrrolidine-2-carboxamido)methyl)-5-(4-methylthiazol-5-yl)phenoxy)acetyl)azetidin-3-yl)(phenyl)methyl)-1H-pyrazol-4-yl)-5a-methyl-1,4,4a,5,5a,6-hexahydrocyclopropa[f]indazole-3-carboxamide]	63.4	20.2
Cc1ncsc1-c1ccc([C@H](C)NC(=O)[C@@H]2C[C@@H](O)CN2C(=O)[C@@H](NC(=O)c2ncc(N3CCC(C(=O)N4CC([C@@H](c5ccccc5)n5cc(NC(=O)c6n[nH]c7c6C[C@@H]6C(F)(F)[C@]6(C)C7)cn5)C4)CC3)cn2)C(C)(C)C)cc1 [Compound 21, (4aS,5aR)-5,5-difluoro-N-(1-((S)-(1-(1-(2-(((S)-1-((2S,4R)-4-hydroxy-2-(((S)-1-(4-(4-methylthiazol-5-yl)phenyl)ethyl)carbamoyl)pyrrolidin-1-yl)-3,3-dimethyl-1-oxobutan-2-yl)carbamoyl)pyrimidin-5-yl)piperidine-4-carbonyl)azetidin-3-yl)(phenyl)methyl)-1H-pyrazol-4-yl)-5a-methyl-1,4,4a,5,5a,6-hexahydrocyclopropa[f]indazole-3-carboxamide]	95	64.7
Cc1ncsc1-c1ccc([C@H](C)NC(=O)[C@@H]2C[C@@H](O)CN2C(=O)[C@@H](NC(=O)CN2CCN(CC(=O)N3CC([C@@H](c4ccccc4)n4cc(NC(=O)c5n[nH]c6c5C[C@@H]5C(F)(F)[C@]5(C)C6)cn4)C3)CC2)C(C)(C)C)cc1 [Compound 24, (4aS,5aR)-5,5-difluoro-N-(1-((S)-(1-(2-(4-(2-(((S)-1-((2S,4R)-4-hydroxy-2-(((S)-1-(4-(4-methylthiazol-5-yl)phenyl)ethyl)carbamoyl)pyrrolidin-1-yl)-3,3-dimethyl-1-oxobutan-2-yl)amino)-2-oxoethyl)piperazin-1-yl)acetyl)azetidin-3-yl)(phenyl)methyl)-1H-pyrazol-4-yl)-5a-methyl-1,4,4a,5,5a,6-hexahydrocyclopropa[f]indazole-3-carboxamide]	93	92.7
CN[C@@H](C)C(=O)N[C@H](C(=O)N1CCC[C@H]1c1nc(C(=O)c2cccc(OCCOCCOCCOCCOCCC(=O)N3CC([C@@H](c4ccccc4)n4cc(NC(=O)c5n[nH]c6c5C[C@@H]5C(F)(F)[C@]5(C)C6)cn4)C3)c2)cs1)C1CCCCC1 [Compound 6, (4aS,5aR)—N-(1-((S)-(1-(1-(3-(2-((S)-1-((S)-2-cyclohexyl-2-((S)-2-(methylamino)propanamido)acetyl)pyrrolidin-2-yl)thiazole-4-carbonyl)phenoxy)-3,6,9,12-tetraoxapentadecan-15-oyl)azetidin-3-yl)(phenyl)methyl)-1H-pyrazol-4-yl)-5,5-difluoro-5a-methyl-1,4,4a,5,5a,6-hexahydrocyclopropa[f]indazole-3-carboxamide]		14
